Data from US8835631B2, “Therapeutic agent for cerebral infarction” (Mitsubishi Tanabe Pharma Corporation, priority 2007, dated 2014).

Legend:
[1] = Evaluation of bioavailability in rat; assay type: in vivo, male SD(IGS) rats; details: plasma; for AUC0-last / AUC0-∞ / Cmax at 5 min / Cmax: Mean + SD; for Cmax at 5 min / bioavailability / Cmax: male, SD(IGS); for Cmax at 5 min: iv, read-out: Cmax (C5 min, plasma concentration at 5 min after administration); for bioavailability: oral, 3 mg/kg p.o. vs 3 mg/kg i.v., F = (AUC0-∞,p.o./AUC0-∞,i.v.,mean) × (Dosei.v./Dosep.o.) × 100; for Cmax: po, read-out: Cmax
Method: Test compound A, test compound B and test compound C were each dissolved in 0.5% aqueous HPMC (hydroxypropyl methylcellulose) solution in the case of oral administration, or in saline in the case of intravenous administration, and they were orally or intravenously administered to male SD(IGS) rats (Charles River Laboratories Japan) by 3 mg/kg. The concentration of unchanged drug in the plasma of each rat was measured, and bioavailability (F(%)) was calculated (F (%)=(AUC0-∞,p.o./AUC0-∞,i.v.,mean)×(Dosei.v./Dosep.o.)×100). The test compound was administered by gavage using an oral gavage needle (p.o.), or administered in the tail vein (i.v.). The blood samples were collected at 15 and 30 min, 1, 2, 4, 6, 8 and 24 hr after administration in the case of oral administration, and 5 and 30 min, 1, 2, 4, 6, 8 and 24 hr after administration in the case of intravenous administration.
The results are shown in Tables 4 (test compound A), 5 (test compound B) and 6 (test compound C). The Cmax values for i.v. in Tables 4, 5 and 6 show plasma concentration at 5 min after administration.

[2] = tested on: IL-10; assay: IL-10 production in LPS-administered mouse; assay type: in vivo, male BALB/c mouse; details: for IL-10 in LPS model mouse (in words): 10 mg/kg orally 30 min before LPS; for IL-10 production (%): Table 1, 10 mg/kg orally 30 min before LPS 500 μg/kg i.p., plasma 90 min after LPS, ratio to group without test compound
Method: (§1) LPS (lipopolysaccharide, derived from E. coli 0111:B4, Sigma, 500 μg/kg) was intraperitoneally administered to male BALB/c mouse (Charles River Laboratories Japan). After 90 min after LPS administration, the blood was taken under anesthesia, and centrifuged to collect plasma. TNF-α was measured using an Immunoassay Kit (R&D Systems) and IL-10, MCP-1 and IL-6 were measured using an Immunoassay Kit (BIOSOURCE). Test compound A, the compound synthesized in Example 3 (test compound B) and the compound synthesized in Example 7 (test compound C) were dissolved in saline, and the mixture was orally administered at 10 mg/kg 30 min before LPS administration. As shown in the Tables, the effect of each test compound on respective […] cytokines was calculated as the ratio of each cytokine concentration in the blood of the group administered with each test compound to each cytokine concentration in the blood of the group free of administration of each test compound.

[3] = tested on: IL-6; assay: IL-6 production in LPS-administered mouse; assay type: in vivo, male BALB/c mouse; details: for IL-6 production in LPS model mouse (in words): 10 mg/kg orally 30 min before LPS; for IL-6 production (%): 10 mg/kg orally 30 min before LPS 500 μg/kg i.p., plasma 90 min after LPS, ratio to group without test compound
Method: as §1

[4] = tested on: TNF-α; assay: TNF-α production in LPS-administered mouse; assay type: in vivo, male BALB/c mouse; details: for TNF-α production in LPS model mouse (in words): 10 mg/kg orally 30 min before LPS; for TNF-α production (%): Table 1, 10 mg/kg orally 30 min before LPS 500 μg/kg i.p., plasma 90 min after LPS, ratio to group without test compound
Method: as §1

[5] = tested on: rat middle cerebral artery occlusion-reperfusion model; assay: Cerebral infarction volume in rat middle cerebral artery occlusion-reperfusion model; assay type: in vivo, male Wistar rats; details: 10 mg/kg intravenously 30 min after occlusion, reperfusion 90 min after occlusion, brain isolated 24 hr later, TTC stain; FIG. 7
Method: The middle cerebral artery of male Wistar rats (Japan Laboratory Animals Inc.) was obstructed with suture (silicon-coated nylon thread), and saline (Vehicle, n=7), test compound A (10 mg/kg, n=6) dissolved in saline, test compound B ([…], n=7) dissolved in saline, and test compound C (10 mg/kg, n=7) dissolved in saline were each intravenously administered in 30 min after occlusion and the artery was reperfused in 90 min after occlusion. The brain was isolated 24 hr later. A 2 mm brain strip was prepared, and the strip was stained with PBS (pH 7.4, 37° C.) containing 1% 2,3,5-triphenyltetrazolium chloride (TTC, Wako Pure Chemical Industries, Ltd.). The cerebral infarction area was measured by image analysis and the cerebral infarction volume was calculated.

[6] = tested on: MCP-1; assay: MCP-1 production in LPS-administered mouse; assay type: in vivo, male BALB/c mouse; details: for MCP-1 production in LPS model mouse (in words): 10 mg/kg orally 30 min before LPS; for MCP-1 production (%): 10 mg/kg orally 30 min before LPS 500 μg/kg i.p., plasma 90 min after LPS, ratio to group without test compound
Method: as §1

[7] = Evaluation of intracerebral transitivity in rat; assay type: in vivo, SD(IGS) rats; details: for Kp at 1 h / Kp at 4 h: SD(IGS), brain, po, 3 mg/kg orally, read-out: Kp value (ratio of plasma concentration and intracerebral concentration); for Kp at 1 h: 1 hr after administration; for Kp at 4 h: 4 hr after administration; for intracerebral transitivity (in words): orally, test compound A 30 mg/kg, test compounds B and C 3 mg/kg
Method: The test compound A dissolved in 0.5% aqueous HPMC solution was orally administered at 30 mg/kg, and test compound B and test compound C dissolved in 0.5% aqueous HPMC solution were each orally administered at 3 mg/kg to SD(IGS) rats (Charles River Laboratories Japan). At 1 hr and 4 hr after the administration of the test compound, blood samples were collected, and the brain (cerebral•cerebellum) was isolated. The plasma concentration and intracerebral concentration of each test compound were measured, and the ratio (Kp value) thereof was calculated, based on which the intracerebral transitivity was evaluated.

[8] = tested on: IL-1β receptor; details: non-patent document 6; cited from earlier work
[9] = molecular target: T1, IL-1β receptor (Homo sapiens, UniProt P14778); details: clinical trial (Phase II); non-patent document 7; cited from earlier work
T1 sequence (P14778 18-569): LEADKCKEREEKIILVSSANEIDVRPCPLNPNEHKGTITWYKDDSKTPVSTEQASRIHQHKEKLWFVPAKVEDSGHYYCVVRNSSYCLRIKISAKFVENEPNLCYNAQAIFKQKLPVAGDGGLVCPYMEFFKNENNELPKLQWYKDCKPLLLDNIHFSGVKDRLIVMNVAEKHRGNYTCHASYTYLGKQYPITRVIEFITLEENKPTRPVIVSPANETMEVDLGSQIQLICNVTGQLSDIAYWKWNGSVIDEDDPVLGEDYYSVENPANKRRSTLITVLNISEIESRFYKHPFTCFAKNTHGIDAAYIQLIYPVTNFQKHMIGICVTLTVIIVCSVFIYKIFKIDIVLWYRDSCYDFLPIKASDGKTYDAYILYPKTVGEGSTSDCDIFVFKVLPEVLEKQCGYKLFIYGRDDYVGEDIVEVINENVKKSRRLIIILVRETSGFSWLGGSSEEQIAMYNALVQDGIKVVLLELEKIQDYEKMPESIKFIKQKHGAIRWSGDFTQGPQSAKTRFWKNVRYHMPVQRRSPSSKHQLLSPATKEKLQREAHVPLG

Compound	AUC0-last ([1]; 3 mg/kg i.v.)	AUC0-∞ ([1]; 3 mg/kg i.v.)	AUC0-last ([1]; 3 mg/kg p.o.)	AUC0-∞ ([1]; 3 mg/kg p.o.)	Cmax at 5 min ([1]; 3 mg/kg i.v.)	bioavailability [1]	Cmax ([1]; 3 mg/kg p.o.)	IL-10 in LPS model mouse (in words) [2]	IL-10 production (%) [2]	IL-6 production in LPS model mouse (in words) [3]	TNF-α production in LPS model mouse (in words) [4]	TNF-α production (%) [4]	suppression of cerebral infarction volume [5]	MCP-1 production in LPS model mouse (in words) [6]	Kp at 1 h [7]	Kp at 4 h [7]	intracerebral transitivity (in words) [7]	other results
CC(=O)NC1(c2ccc(CN3C[C@@H]4C[C@H]3CN4c3ncccn3)cc2)CC1 [test compound B, N-[1-(4-{[(1S,4S)-5-(pyrimidin-2-yl)-2,5-diazabicyclo[2.2.1]hept-2-yl]methyl}phenyl)cyclopropyl]acetamide]	1449.8 ± 123.3 ngh/mL	1464.6 ± 122.3 ngh/mL	1082.8 ± 171.1 ngh/mL	1105.7 ± 170.8 ngh/mL	1600 ± 58.3 ng/mL	75.5%	471 ng/mL	increased	350.1%	suppressed	suppressed	53.9%	17.8%	suppressed	0.8	1.3	intracerebrally transferred	IL-6 production (%) ([3]; Table 2): 78.7%; MCP-1 production (%) ([6]; Table 2): 63.9%
CC(=O)NC1(c2ccc(CN3CCN(c4ncccn4)CC3)cn2)CC1 [test compound C, N-(1-{5-[{4-(pyrimidin-2-yl)piperazin-1-yl}methyl]pyridin-2-yl}cyclopropyl)acetamide]	10173.6 ± 3012.9 ngh/mL	10446.3 ± 2852.3 ngh/mL	8192.2 ± 3114.3 ngh/mL	8434.3 ± 2981.5 ngh/mL	4510 ± 359 ng/mL	80.7%	2000 ng/mL	increased	401.4%	suppressed	suppressed	50.6%	43.2%	suppressed	0.8	0.9	intracerebrally transferred	IL-6 production (%) ([3]; Table 3): 81%; MCP-1 production (%) ([6]; Table 3): 72.1%
recombinant IL-1ra: an IL-1β receptor antagonist (recombinant IL-1ra)																		cerebral ischemic disorder [8]: alleviating action; cerebral ischemic disorder [9]: alleviating effect
